Measurements taken from patent EP0167553B1, “NEW THERAPEUTICAL APPLICATION OF AN INDANE DIONE DERIVATIVE AND PHARMACEUTICAL COMPOSITIONS INTENDED TO SAID UTILIZATION” (priority 1983, dated 1985).
Where “and” joins values, the source holds several entries; their conditions need not be identical. Equal entries are not always repeated.

Tests used:
[1] = test system: Rats: Wistar femelles; test: Atherogenic diet (modified Aubert technique): biochemical examinations and atherogenic risk; assay type: in vivo, Rat Wistar; parameters: score général Biochimie / Risque athérogène Score Total: scale not given here; conditions: for Cholesterol LDL Cholesterol HDL Score / Cholesterol T/ Cholesterol HDL Score: atherogenic risk ratio; for score général Biochimie: sum of the individual biochemical scores
Description: (§1) La technique utilisée est celle, légèrement modifiée, de AUBERT D., FERAUD J.C., LACAZE B., PEPINO., PANAK E. et PODESTA M. "Athérogénèse expérimentale chez le Rat Wistar". ATHEROSCLEROSIS 2Q (1974) 263 - 280.
(§2) • - Rats: Wistar femelles, E.O.P.S. en provenance de l'élevage EVIC-CEBA. • - Poids corporel: 160 180 g au départ de l'étude • - Alimentation: UAR A03, enrichi en cholestérol (0,5 %) et en Acide chloique (0,5 %). • - Eau de boisson: eau de ville. • - 15 animaux par lot et par cage MAKROLON SAFI® de 59 x 38,5 cm sur litière de copeaux de bois blanc dépoussiérés. • - Cages placées dans un module animalerie climatisé (20°C * 1°C), à l'humidité constante (50 % ± 10 %). Durée d'éclairement: 12 heures par jour (7 h à 19 h). • - Administration des produits: Après 15 jours de régime athéromateux, on leur administre par voie orale pendant 4 jours 250 000 Ul/kg de vitamine D2 (Stérogyl 15 H) en solution dans l'huile d'olive. On administre ensuite les produits à étudier pendant 4 semaines dès la fin de l'administration de l'agent lésionnel.
(§3) L'étude porte sur 5 Lots de 15 rats (tableau N° IV)
En fin d'étude, on pratique sur tous les animaux survivants les examens suivants: • - Cholestérol total, • - Cholestérol estérifié, • - Cholestérol HDL • - Cholestérol LDL (évaluation), • - Lipides totaux, • - Triglycérides.

[2] = Chronic administration, maximum tolerated dose in the rat; assay type: in vivo; conditions: rat, in vivo, administration chronique, read-out: dose maximale tolérée
Experimental: (§4) • - Le comportement et l'[…] pondérale des animaux sont étudiés par l'observation quotidienne et les pesées hebdomadaires. L'étude de l'évolution pondérale ne montre pas de différence significative entre les différents lots. C'est un indice de bonne tolérance du traitement. • - La moralité est notée dans chaque lot; elle peut atteindre 30 % des animaux ce qui nécessite des lots de 15 animaux. L'administration chronique de 100 mg/kg de Clofibrate correspond à la dose maximale tolérée par le Rat sain selon nos expériences personnelles.

[3] = test system: Rat sain; test: as above; assay type: in vivo; conditions: administration chronique
Experimental: as §4

[4] = test system: Rats: Wistar femelles; test: Atherogenic diet (modified Aubert technique): mortality, body weight, tolerance, overall score; assay type: in vivo, Rat Wistar; conditions: 100 mg/kg; for taux de mortalité: lots of 15 rats on atherogenic diet; for Score Total: sum of Biochimie, Risque athérogène, Macroscopie, Histologie
Experimental: as §2, §3, §4
Les scores obtenus par les différents produits étudiés sont les suivants (Tableau V)

[5] = test system: Rats: Wistar femelles; test: Atherogenic diet (modified Aubert technique): histopathological examination; assay type: in vivo, Rat Wistar; conditions: 100 mg/kg; three parameters scored relative to Clofibrate
Description: as §1, §2
Les aortes, les foies et les coeurs sont fixés au Bouitaqueux et inclus à la paraffine après passage par les alcools à concentration croissante et par le toluène.
Les foies sont colorés par la technique à l'hématéine-éosine. Les aortes sont colorées par: • - la technique à l'orcéine - vert lumière afin de mettre en évidence les altérations structurales des lames élastiques. • - la technique à l'acide périodique plus réactif de Schiff pour déceler les dépôts de mucopolysaccharides, • - la technique à l'hématéine plus éosine afin de mettre en évidence les dépôts de calcium.
L'intensité des altérations observées et le degré d'athéromatose sont indiquées par l'un des signes:
• - Pas d'athéromatose 0 • = Très léger degré d'athéromatose 0,5 • + Léger degré d'athéromatose 1 • ++ Moyen degré d'athéromatose 2 • +++Important degré d'athéromatose 3
Les zones athéromateuses sont dénombrées sur une longueur identique pour chacune des aortes examinées. […]

[6] = Earlier anti-inflammatory test; assay type: in vivo; conditions: dose de 250 mg/kg
[7] = 100 mg/kg, 4 weeks, score relative to Clofibrate (Base 1)

Compound	Cholesterol LDL Cholesterol HDL Score/Clofibrate ([1]; 100 mg/kg)	Cholesterol T/ Cholesterol HDL Score/Clofibrate ([1]; 100 mg/kg)	Risque athérogène Score Total ([1]; 100 mg/kg)	Cholesterol E Score [1, 7]	Cholesterol HDL Score [1, 7]	Cholesterol LDL Score [1, 7]	Cholesterol T Score [1, 7]	Lipides totaux Score [1, 7]	Triglycerides Score [1, 7]	Cholesterol LDL Cholesterol HDL Score ([1]; 100 mg/kg)	Cholesterol T/ Cholesterol HDL Score ([1]; 100 mg/kg)	score général Biochimie ([1]; 100 mg/kg)	MTD [2] [mg/kg]	dose maximale tolérée [3] [mg/kg]	taux de mortalité [4]	Score Total [4]	Histologie score [5]	activité sur les paramètres biochimiques ([1]; compared with Clofibrate at the same dose)	activité anti-lipémiante ([1]; dès la dose de 100 mg/kg)	effet anti-inflammatoire [6]
CCOC(=O)C(C)(C)Oc1ccc(Cl)cc1 [Clofibrate]	1.00	1.00	2	1.00	1.00	1.00	1.00	1.00	1.00	5.35	6.69	6	~100	100	4/15	13.00	3.00	–	–	–
COc1ccc(C(=O)CC2(O)C(=O)c3ccccc3C2=O)cc1OC [Produit de l'invention, 2-[(3,4-dimethoxybenzoyl)methyl] 2-hydroxy 1,3-dioxo indane]	0.46	0.44	0.90	1.05	–	1.04	1.14	1.37	1.07	15.63	17.81	5.6 and 5.67	–	–	2/15	10.46	1.3 and 1.32	aussi actif que le Clofibrate	nette activité anti-lipémiante	effet liminaire anti-inflammatoire
